Legend:
[1] = akkermansia muciniphila, 12 h, 2 µM
Description: The drug is tested on Akkermansia muciniphila strain: ATCC BAA-835 for biotransformation. The drug concentrations were measured before and after a 12-h incubation by liquid-chromatography-coupled mass spectrometry (LC–MS)

[2] = roseburia intestinalis, 12 h, 2 µM
Description: The drug is tested on Roseburia intestinalis strain: L1-82 for biotransformation. The drug concentrations were measured before and after a 12-h incubation by liquid-chromatography-coupled mass spectrometry (LC–MS)

[3] = bacteroides thetaiotaomicron, 12 h, 2 µM
Description: The drug is tested on Bacteroides thetaiotaomicron strain: 3731 for biotransformation. The drug concentrations were measured before and after a 12-h incubation by liquid-chromatography-coupled mass spectrometry (LC–MS)

[4] = The drug is tested on Bacteroides fragilis strain: HMW615 for biotransformation. The drug concentrations were measured before and after a 12-h incubation by liquid-chromatography-coupled mass spectrometry (LC–MS); details: 2 µM
[5] = The drug is tested on Bifidobacterium longum subsp. Infantis strain: CCUG52486 for biotransformation. The drug concentrations were measured before and after a 12-h incubation by liquid-chromatography-coupled mass spectrometry (LC–MS); details: 2 µM
[6] = limosilactobacillus reuteri cf48-3a, 12 h, 2 µM
Description: The drug is tested on Lactobacillus reuteri CF48-3A strain: BEI HM-102 for biotransformation. The drug concentrations were measured before and after a 12-h incubation by liquid-chromatography-coupled mass spectrometry (LC–MS)

[7] = The drug is tested on Eubacterium ventriosum strain: ATCC27560 for biotransformation. The drug concentrations were measured before and after a 12-h incubation by liquid-chromatography-coupled mass spectrometry (LC–MS); type: ADME; set-up: dose 2 uM, timepoint 0 vs 12 hours; details: 2 µM
[8] = The drug is tested on Eubacterium hallii strain: DSM3353 for biotransformation. The drug concentrations were measured before and after a 12-h incubation by liquid-chromatography-coupled mass spectrometry (LC–MS); details: anaerobutyricum hallii, 2 µM
[9] = The drug is tested on Collinsella aerofaciens strain: ATCC25986 for biotransformation. The drug concentrations were measured before and after a 12-h incubation by liquid-chromatography-coupled mass spectrometry (LC–MS); details: 2 µM
[10] = bacteroides intestinalis, 12 h, 2 µM
Description: The drug is tested on Bacteroides intestinalis strain: DSM17393 for biotransformation. The drug concentrations were measured before and after a 12-h incubation by liquid-chromatography-coupled mass spectrometry (LC–MS)

[11] = The drug is tested on Bacteroides dorei strain: DSM17855 for biotransformation. The drug concentrations were measured before and after a 12-h incubation by liquid-chromatography-coupled mass spectrometry (LC–MS); details: phocaeicola dorei, 2 µM
[12] = The drug is tested on Bacteroides xylanisolvens strain: DSM18836 for biotransformation. The drug concentrations were measured before and after a 12-h incubation by liquid-chromatography-coupled mass spectrometry (LC–MS); details: 2 µM
[13] = The drug is tested on Clostridium ramosum strain: DSM1402 for biotransformation. The drug concentrations were measured before and after a 12-h incubation by liquid-chromatography-coupled mass spectrometry (LC–MS); details: thomasclavelia ramosa, 2 µM
[14] = The drug is tested on Bacteroides finegoldii strain: DSM17565 for biotransformation. The drug concentrations were measured before and after a 12-h incubation by liquid-chromatography-coupled mass spectrometry (LC–MS); details: 2 µM
[15] = The drug is tested on Ruminococcus gnavus strain: ATCC29149 for biotransformation. The drug concentrations were measured before and after a 12-h incubation by liquid-chromatography-coupled mass spectrometry (LC–MS); details: mediterraneibacter gnavus, 2 µM
[16] = bacteroides fragilis, 12 h, 2 µM
Description: The drug is tested on Bacteroides fragilis strain: NCTC 9343 for biotransformation. The drug concentrations were measured before and after a 12-h incubation by liquid-chromatography-coupled mass spectrometry (LC–MS)

[17] = The drug is tested on Bacteroides sp. WH2 strain: WH2 for biotransformation. The drug concentrations were measured before and after a 12-h incubation by liquid-chromatography-coupled mass spectrometry (LC–MS); details: bacteroides sp. wh2, 12 h, 2 µM
[18] = The drug is tested on Providencia stuartii strain: ATCC25827 for biotransformation. The drug concentrations were measured before and after a 12-h incubation by liquid-chromatography-coupled mass spectrometry (LC–MS); details: 2 µM
[19] = The drug is tested on Anaerotruncus colihominis strain: DSM17241 for biotransformation. The drug concentrations were measured before and after a 12-h incubation by liquid-chromatography-coupled mass spectrometry (LC–MS); details: 2 µM
[20] = The drug is tested on Bifidobacterium ruminantium strain: fecal isolate for biotransformation. The drug concentrations were measured before and after a 12-h incubation by liquid-chromatography-coupled mass spectrometry (LC–MS); details: 2 µM

SMILES	Bacterial Biotransformation [1]	Bacterial Biotransformation [2]	Bacterial Biotransformation [3]	Bacterial Biotransformation [4]	Bacterial Biotransformation [5]	Bacterial Biotransformation [6]	Bacterial Biotransformation [7]	Bacterial Biotransformation [8]	Bacterial Biotransformation [9]	Bacterial Biotransformation [10]	Bacterial Biotransformation [11]	Bacterial Biotransformation [12]	Bacterial Biotransformation [13]	Bacterial Biotransformation [14]	Bacterial Biotransformation [15]	Bacterial Biotransformation [16]	Bacterial Biotransformation [17]	Bacterial Biotransformation [18]	Bacterial Biotransformation [19]	Bacterial Biotransformation [20]
CC(CCc1ccccc1)NCC(O)c1ccc(O)c(C(N)=O)c1 (configuration not stated) [LABETALOL]	Compound NOT metabolized	Compound NOT metabolized	Compound NOT metabolized	Compound NOT metabolized	Compound NOT metabolized	Compound NOT metabolized	Compound NOT metabolized	Compound NOT metabolized	Compound NOT metabolized	Compound NOT metabolized	Compound NOT metabolized	Compound NOT metabolized	Compound NOT metabolized	Compound NOT metabolized	Compound NOT metabolized	Compound NOT metabolized	Compound NOT metabolized	Compound NOT metabolized		
C#C[C@]1(OC(C)=O)CC[C@H]2[C@@H]3CCC4=C/C(=N/O)CC[C@@H]4[C@H]3CC[C@@]21CC [NORGESTIMATE]		Compound NOT metabolized	Compound NOT metabolized	Compound NOT metabolized	Compound NOT metabolized		Compound NOT metabolized	Compound NOT metabolized	Compound NOT metabolized	Compound NOT metabolized	Compound metabolized	Compound NOT metabolized	Compound NOT metabolized	Compound metabolized	Compound NOT metabolized	Compound NOT metabolized	Compound NOT metabolized	Compound NOT metabolized	Compound NOT metabolized	Compound NOT metabolized
CN(C)CCOC(C)(c1ccccc1)c1ccccn1.O=C(O)CCC(=O)O (configuration not stated) [DOXYLAMINE SUCCINATE]	Compound NOT metabolized	Compound NOT metabolized	Compound NOT metabolized	Compound NOT metabolized	Compound NOT metabolized	Compound NOT metabolized	Compound NOT metabolized	Compound NOT metabolized	Compound NOT metabolized	Compound NOT metabolized	Compound NOT metabolized	Compound NOT metabolized	Compound NOT metabolized	Compound NOT metabolized	Compound NOT metabolized	Compound NOT metabolized	Compound NOT metabolized	Compound NOT metabolized	Compound NOT metabolized	
CC1OC(OC2C(O)CC(OC3C(O)CC(OC4CCC5(C)C(CCC6C5CCC5(C)C(C7=CC(=O)OC7)CCC65O)C4)OC3C)OC2C)CC(O)C1O (configuration not stated)	Compound NOT metabolized	Compound NOT metabolized	Compound NOT metabolized	Compound metabolized	Compound NOT metabolized		Compound NOT metabolized	Compound NOT metabolized	Compound NOT metabolized		Compound metabolized	Compound metabolized	Compound NOT metabolized	Compound NOT metabolized	Compound NOT metabolized	Compound NOT metabolized	Compound NOT metabolized	Compound NOT metabolized		
C[C@H]1O[C@@H](O[C@H]2[C@@H](O)C[C@H](O[C@H]3[C@@H](O)C[C@H](O[C@H]4CC[C@@]5(C)[C@H](CC[C@@H]6[C@@H]5C[C@@H](O)[C@]5(C)[C@@H](C7=CC(=O)OC7)CC[C@]65O)C4)O[C@@H]3C)O[C@@H]2C)C[C@H](O)[C@@H]1O [DIGOXIN]	Compound NOT metabolized	Compound NOT metabolized	Compound NOT metabolized	Compound metabolized	Compound NOT metabolized	Compound NOT metabolized	Compound NOT metabolized	Compound NOT metabolized	Compound NOT metabolized	Compound NOT metabolized	Compound metabolized	Compound metabolized	Compound NOT metabolized		Compound NOT metabolized	Compound NOT metabolized	Compound NOT metabolized	Compound NOT metabolized	Compound NOT metabolized	
O=C1NCC2(CCN(CCc3ccccc3)CC2)O1 [FENSPIRIDE]	Compound NOT metabolized	Compound NOT metabolized	Compound metabolized	Compound metabolized	Compound NOT metabolized	Compound NOT metabolized	Compound NOT metabolized	Compound NOT metabolized	Compound NOT metabolized		Compound metabolized	Compound NOT metabolized	Compound NOT metabolized	Compound NOT metabolized	Compound NOT metabolized	Compound metabolized	Compound NOT metabolized	Compound NOT metabolized	Compound NOT metabolized	

Reference: ChEMBL document CHEMBL5303573, “Mapping human microbiome drug metabolism by gut bacteria and their genes” (Nature, 2019)
